In ChEMBL document CHEMBL6074649, “An insight into recent developments in imidazole based heterocyclic compounds as anticancer agents: Synthesis, SARs, and mechanism of actions” (Eur J Med Chem, 2024):
Values after ≈ are worked out from the molar mass of the structure shown.

Tests used:
MCF7 [1] = test: Cytotoxicity against human MCF7 cells assessed as reduction in cell viability by MTT assay; format: functional, cell-based
COLO 205 = test: Cytotoxicity against human COLO 205 cells assessed as reduction in cell viability by MTT assay; format: functional, cell-based
A2780 = test: Cytotoxicity against human A2780 cells assessed as reduction in cell viability by MTT assay; format: functional, cell-based
K562 = test: Antiproliferative activity against human K562 cells assessed as reduction in cell growth incubated for 48 hrs by MTT assay; format: functional, cell-based; details: K562, 48 h
HeLa [2] = test: Antiproliferative activity against human HeLa cells assessed as reduction in cell growth incubated for 48 hrs by MTT assay; format: functional, cell-based
A549 [3] = test: Cytotoxicity against human A549 cells assessed as reduction in cell viability by MTT assay; format: functional, cell-based
IMR-32 = test: Anticancer activity against human IMR-32 cells assessed as reduction in cell viability incubated for 48 hrs by MTT assay; format: functional, cell-based; details: IMR-32, 48 h
A549 [4] = test: Anticancer activity against human A549 cells assessed as reduction in cell viability incubated for 48 hrs by MTT assay; format: functional, cell-based; details: A549, 48 h
HeLa [5] = test: Anticancer activity against human HeLa cells assessed as reduction in cell viability incubated for 48 hrs by MTT assay; format: functional, cell-based
[6] = Anticancer activity against HEK293 cells assessed as reduction in cell viability incubated for 48 hrs by MTT assay; format: toxicity, cell-based; details: human
AGS = test: Antiproliferative activity against human AGS cells assessed as reduction in cell viability incubated for 24 hrs by MTT assay; format: functional, cell-based
A549 [7] = test: Antiproliferative activity against human A549 cells assessed as reduction in cell viability incubated for 24 hrs by MTT assay; format: functional, cell-based; details: A549, 24 h
[8] = Antiproliferative activity against human MRC5 cells assessed as reduction in cell viability incubated for 24 hrs by MTT assay; format: toxicity, cell-based
HepG2 [9] = test: Cytotoxicity against human HepG2 cells assessed as reduction in cell growth incubated for 24 hrs by MTT assay; format: functional, cell-based; details: HepG2, 24 h
MCF7 [10] = test: Cytotoxicity against human MCF7 cells assessed as reduction in cell growth measured for 24 hrs by MTT assay; format: functional, cell-based; details: MCF7, 24 h
Caco-2 = test: Cytotoxicity against human Caco-2 cells assessed as reduction in cell growth measured for 24 hrs by MTT assay; format: functional, cell-based; details: Caco-2, 24 h
MCF7 [11] = test: Cytotoxicity against human MCF7 cells assessed as reduction in cell growth incubated for 24 hrs by SRB assay; format: functional, cell-based; details: MCF7, 24 h
HepG2 [12] = test: Cytotoxicity against human HepG2 cells assessed as reduction in cell growth incubated for 24 hrs by SRB assay; format: functional, cell-based; details: HepG2, 24 h
MCF7 [13] = test: Anticancer activity against human MCF7 cells at 1.5 uM relative to control; format: functional
MCF7 [14] = test: Anticancer activity against human MCF7 cells at 1.9 uM relative to control; format: functional
MCF7 [15] = test: Anticancer activity against human MCF7 cells at 3.9 uM relative to control; format: functional
MCF7 [16] = test: Anticancer activity against human MCF7 cells at 7.8 uM relative to control; format: functional
MCF7 [17] = test: Anticancer activity against human MCF7 cells at 15.6 uM relative to control; format: functional
MCF7 [18] = test: Anticancer activity against human MCF7 cells at 31.25 uM relative to control; format: functional
MCF7 [19] = test: Anticancer activity against human MCF7 cells at 62.5 uM relative to control; format: functional
MCF7 [20] = test: Anticancer activity against human MCF7 cells at 125 uM relative to control; format: functional
MCF7 [21] = test: Anticancer activity against human MCF7 cells at 500 uM relative to control; format: functional
MDA-MB-231 = test: Antiproliferative activity against human MDA-MB-231 cells assessed as reduction in cell growth by MTT assay; format: functional, cell-based
[22] = Antiproliferative activity against human MCF-10A cells assessed as reduction in cell growth by MTT assay; format: toxicity, cell-based
[23] = Antiproliferative activity against human HepG2 cells assessed as reduction in cell growth by MTT assay; format: toxicity, cell-based
L02 = test: Antiproliferative activity against human LO2 cells assessed as reduction in cell growth by MTT assay; format: functional, cell-based
Leukemia cell = test: Growth inhibition of human Leukemia cell; format: functional

## COc1cc([C@@H]2c3cc4c(cc3[C@@H](O[C@@H]3O[C@@H]5CO[C@@H](C)O[C@H]5[C@H](O)[C@H]3O)[C@H]3COC(=O)[C@H]23)OCO4)cc(OC)c1O [ETOPOSIDE]
MCF7 [1]
  IC50: 2110 nM
COLO 205
  IC50: 130 nM
A2780
  IC50: 1310 nM
K562
  IC50: 6 µM
HeLa [2]
  IC50: 2.99 µM

## COc1cc(OC)c(S(=O)(=O)n2ccnc2-c2ccon2)c(OC)c1
MCF7 [1]
  IC50: 410 nM
A549 [3]
  IC50: 290 nM
COLO 205
  IC50: 260 nM
A2780
  IC50: 1220 nM

## COc1cc([C@@H]2c3cc4c(cc3[C@@H](n3cnc([N+](=O)[O-])c3)[C@H]3COC(=O)[C@H]23)OCO4)cc(OC)c1O
K562
  IC50: 7.43 µM

## O=[N+]([O-])c1ccccc1-c1nc(-c2ccc(Br)cc2)c(-c2ccc(Br)cc2)[nH]1
IMR-32
  IC50: 10.3 µM
A549 [4]
  IC50: 12.5 µM
HeLa [5]
  IC50: 13.6 µM
[6]
  IC50 at 48 h: 94.3 µM

## COc1ccc(C(=O)/C=C/c2nc3ccccc3n2C)cc1
AGS
  IC50: 15.1 µM
A549 [7]
  IC50: 68.1 µM
[8]
  IC50 at 24 h: 45.9 µM

## c1coc(-c2nc(-c3ccc(OCCCOc4ccc(-c5nc(-c6ccco6)c(-c6ccco6)[nH]5)cc4)cc3)[nH]c2-c2ccoc2)c1
HepG2 [9]
  IC50: 8.14 µM
MCF7 [10]
  IC50: 59.2 µM
Caco-2
  IC50: 327 µM

## COc1ccc(C(=O)/C=C/c2nccn2C)cc1
AGS
  IC50: 20.9 µM
A549 [7]
  IC50: 61.7 µM
[8]
  IC50 at 24 h: 67.4 µM

## CC[C@]1(O)C[C@@H]2CN(CCc3c([nH]c4ccccc34)[C@@](C(=O)OC)(c3cc4c(cc3OC)N(C)[C@H]3[C@@](O)(C(=O)OC)[C@H](OC(C)=O)[C@]5(CC)C=CCN6CC[C@]43[C@@H]65)C2)C1.O=S(=O)(O)O [VINBLASTINE SULFATE]
MCF7 [11]
  IC50: 5.7 µg/mL
HepG2 [12]
  IC50: 4.6 µg/mL

## Fc1ccc(Cn2c(-c3ccc(Cl)cc3)nc(-c3ccccc3)c2-c2ccccc2)cc1
MCF7 [13]
  inhibition at 1.5 µM: 88%
MCF7 [14]
  inhibition at 1.9 µM: 65%
MCF7 [15]
  inhibition at 3.9 µM: 78%
MCF7 [16]
  inhibition at 7.8 µM: 63%
MCF7 [17]
  inhibition at 15.6 µM: 55%
MCF7 [18]
  inhibition at 31.25 µM: 39%
MCF7 [19]
  inhibition at 62.5 µM: 30%
MCF7 [20]
  inhibition at 125 µM: 24%
MCF7 [21]
  inhibition at 500 µM: 12%

## Cc1ccc(-c2nc(-c3ccccc3)c(-c3ccccc3)n2Cc2ccc(F)cc2)cc1
MCF7 [13]
  inhibition at 1.5 µM: 90%
MCF7 [14]
  inhibition at 1.9 µM: 87%
MCF7 [15]
  inhibition at 3.9 µM: 72%
MCF7 [16]
  inhibition at 7.8 µM: 66%
MCF7 [17]
  inhibition at 15.6 µM: 53%
MCF7 [18]
  inhibition at 31.25 µM: 47%
MCF7 [19]
  inhibition at 62.5 µM: 38%
MCF7 [20]
  inhibition at 125 µM: 29%
MCF7 [21]
  inhibition at 500 µM: 15%

## c1ccc(-c2nc(-c3c[nH]c4ccccc34)[nH]c2-c2ccccc2)cc1
MDA-MB-231
  IC50: 31.4 µM
[22]
  IC50: 31.8 µM
[23]
  IC50: 29.3 µM
L02
  IC50: 34.7 µM

## Cc1nc(S)n(-c2ccccc2)c1-c1cc(-c2ccc(-c3cc(-c4c(C)nc(S)n4-c4ccccc4)nc(N)c3C#N)cc2)c(C#N)c(N)n1
MCF7 [11]
  IC50: 1.7 µg/mL (≈ 2.47 µM)
HepG2 [12]
  IC50: 6 µg/mL (≈ 8.71 µM)

## COc1ccc(-c2nc(-c3ccccc3)c(-c3ccccc3)n2Cc2ccc(F)cc2)cc1
MCF7 [13]
  inhibition at 1.5 µM: 82%
MCF7 [14]
  inhibition at 1.9 µM: 88%
MCF7 [15]
  inhibition at 3.9 µM: 79%
MCF7 [16]
  inhibition at 7.8 µM: 73%
MCF7 [17]
  inhibition at 15.6 µM: 65%
MCF7 [18]
  inhibition at 31.25 µM: 54%
MCF7 [19]
  inhibition at 62.5 µM: 41%
MCF7 [20]
  inhibition at 125 µM: 39%
MCF7 [21]
  inhibition at 500 µM: 13%

## Cc1nc(SCC(=O)Nc2nc(-c3ccc(Cl)cc3)cs2)n(Nc2ccccc2)c1C
Leukemia cell
  GI50: 3.08 µM

## Fc1ccc(Cn2c(-c3ccc(Br)cc3)nc(-c3ccccc3)c2-c2ccccc2)cc1
MCF7 [13]
  inhibition at 1.5 µM: 84%
MCF7 [14]
  inhibition at 1.9 µM: 75%
MCF7 [15]
  inhibition at 3.9 µM: 69%
MCF7 [16]
  inhibition at 7.8 µM: 63%
MCF7 [17]
  inhibition at 15.6 µM: 36%
MCF7 [18]
  inhibition at 31.25 µM: 30%
MCF7 [19]
  inhibition at 62.5 µM: 24%
MCF7 [20]
  inhibition at 125 µM: 20%
MCF7 [21]
  inhibition at 500 µM: 5%

## O=c1c(-c2nc(-c3ccc(Br)cc3)c(-c3ccc(Br)cc3)[nH]2)coc2ccccc12
IMR-32
  IC50: 29.4 µM
A549 [4]
  IC50: 27.1 µM
HeLa [5]
  IC50: 24.7 µM
[6]
  IC50 at 48 h: 82.3 µM

## Brc1ccc(-c2nc(-c3ccccc3)c(-c3ccccc3)[nH]2)cn1
MDA-MB-231
  IC50: 17.8 µM
[22]
  IC50: 36.8 µM
[23]
  IC50: 26.7 µM
L02
  IC50: 22 µM

## COc1ccc(Nn2c(SCC(=O)Nc3nc(-c4ccc(Cl)cc4)cs3)nc(C)c2C)cc1
Leukemia cell
  GI50: 4.15 µM

## COc1cc([C@@H]2c3cc4c(cc3[C@@H](n3ccnc3)[C@H]3COC(=O)[C@H]23)OCO4)cc(OC)c1OC
K562
  IC50: 2.88 µM
HeLa [2]
  IC50: 5.22 µM

## Brc1ccc(-c2nc(-c3c[nH]c4ccccc34)[nH]c2-c2ccc(Br)cc2)cc1
IMR-32
  IC50: 10.5 µM
A549 [4]
  IC50: 9.52 µM
HeLa [5]
  IC50: 11.2 µM
[6]
  IC50 at 48 h: 98.5 µM

## COc1cc([C@@H]2c3cc4c(cc3[C@H](n3cnc(C)c3)[C@H]3COC(=O)[C@H]23)OCO4)cc(OC)c1OC
K562
  IC50: 8.8 µM
HeLa [2]
  IC50: 4.48 µM

## c1ccc(-c2nc(-c3ccc(OCc4c(COc5ccc(-c6nc(-c7ccccc7)c(-c7ccccc7)[nH]6)cc5)c(COc5ccc(-c6nc(-c7ccccc7)c(-c7ccccc7)[nH]6)cc5)c(COc5ccc(-c6nc(-c7ccccc7)c(-c7ccccc7)[nH]6)cc5)c(COc5ccc(-c6nc(-c7ccccc7)c(-c7ccccc7)[nH]6)cc5)c4COc4ccc(-c5nc(-c6ccccc6)c(-c6ccccc6)[nH]5)cc4)cc3)[nH]c2-c2ccccc2)cc1
HepG2 [9]
  IC50: 9.77 µM
MCF7 [10]
  IC50: 35.4 µM
Caco-2
  IC50: 32.5 µM

## c1ccc(-c2nc(-c3ccc(OCc4cc(COc5ccc(-c6nc(-c7ccccc7)c(-c7ccccc7)[nH]6)cc5)c(COc5ccc(-c6nc(-c7ccccc7)c(-c7ccccc7)[nH]6)cc5)cc4COc4ccc(-c5nc(-c6ccccc6)c(-c6ccccc6)[nH]5)cc4)cc3)[nH]c2-c2ccccc2)cc1
HepG2 [9]
  IC50: 19.1 µM
MCF7 [10]
  IC50: 12.6 µM
Caco-2
  IC50: 34.8 µM

## Cc1ccc(Nn2c(SCC(=O)Nc3nc(-c4ccccc4)cs3)nc(C)c2C)cc1
Leukemia cell
  GI50: 3.91 µM

## Cn1ccnc1/C=C/C(=O)c1ccc(F)cc1
AGS
  IC50: 29.3 µM
A549 [7]
  IC50: > 100 µM
[8]
  IC50 at 24 h: > 100 µM

## Cc1nc(S)n(-c2ccccc2)c1-c1cc(-c2ccccc2O)c(C#N)c(=O)[nH]1
MCF7 [11]
  IC50: 2 µg/mL (≈ 4.99 µM)
HepG2 [12]
  IC50: 3 µg/mL (≈ 7.49 µM)

## Clc1ncccc1-c1nc(-c2ccccc2)c(-c2ccccc2)[nH]1
MDA-MB-231
  IC50: 24.1 µM
[22]
  IC50: > 50 µM
[23]
  IC50: 19.7 µM
L02
  IC50: > 50 µM
